Experimental data taken from patent US6608051B1, “Compositions and methods for treating blood” (MedPointe Healthcare Inc., priority 1999, dated 2003).

Key:
[1] = solubility in aqueous solutions and organic solvents; format: physicochemical
[2] = pH of a saturated solution in deionized water; format: physicochemical
[3] = apparent partition coefficient between octanol and water; format: physicochemical; details: buffered at pH 7.2
[4] = stability in the solid state; format: physicochemical; details: stored at ambient conditions
[5] = cited from earlier work

O=S1(=O)CCN(CN2CCS(=O)(=O)NC2)CN1 [taurolidine, 4,4′-methylenebis(tetrahydro-1,2,4-thiadiazine)-1,1,1′,1′,-tetraoxide]
solubility ([1]; CHCl3): insoluble
solubility ([1]; Dilute HCl): soluble
solubility ([1]; Dilute NaOH): soluble
solubility ([1]; EtOH): sparingly soluble
solubility ([1]; Water, at 20° C.): 1% at 20 °C
pH of a saturated solution [2]: 7.4
apparent partition coefficient between octanol and water [3]: approximately 0.13
stability in the solid state [4]: acceptable stability
cumulative dose shown to be safe and well tolerated ([5]; cumulative doses, up to and exceeding): ≥ 300 g
systemic dose shown to be safe and well tolerated ([5]; systemic doses): exceeding 40 g/day
